Experimental data from patent US20020092037A1, “Use of membrane supports in plant tissue culture processes” (priority 2000, published 2002).

Test system: P. taeda embryogenic cell lines
Experiment: Growth of non-transgenic, transgenic and mixed pine cell cultures on GENETICIN selection medium with support treatments, P. taeda
Type: cell-based, Pinus taeda
Details: 15 mg/L in DCR selection medium
Protocol: Stably transformed pine tissue had been generated using a particle bombardment method and selected for the presence of an inserted antibiotic resistance gene, nptII, on DCR2 gelled medium (Table 5), in this example containing 15 mg/L GENETICIN®, hereinafter referred to as DCR selection medium. Additionally, the presence of an inserted gus gene, encoding a β-glucuronidase enzyme in tissue culture cells, had been detected by deep blue staining of cells from each of the transgenic lines upon exposure to a colorigenic glucuronidase enzyme substrate (commercially available from Inalco, Inc.), according to techniques well known to those skilled in the art of plant transformation, and the presence of both transgenes had been verified by use of the polymerase chain reaction (PCR) using techniques well known to those skilled in the art of molecular biology. The transgenic pine lines containing and expressing both transgenes had then been cryopreserved as described in Example 4 above. […]
Cells, or the supports bearing the cells, were transferred onto fresh selection medium at biweekly intervals, and fresh weight of cells for each plate was recorded at each biweekly transfer, for a total of eight weeks (Table 19). […]

CN[C@@H]1[C@@H](O)[C@@H](O[C@@H]2[C@@H](O)[C@H](O[C@H]3O[C@H]([C@@H](C)O)[C@@H](O)[C@H](O)[C@H]3N)[C@@H](N)C[C@H]2N)OC[C@]1(C)O [GENETICIN®]
selection of non-transformed versus transformed pine tissue: sufficient to kill the non-transformed tissue while allowing growth of the transformed tissue
